Several values for one entry are separate records, joined by “and”; a condition that tells them apart may be missing. Identical values can stand only once. Like-named read-outs stand apart in the source and are kept apart here.
Tests used:
Pythium glaminicola = details: for Preventive value: 10 ml soil drench, from percentage of onset area after 2 weeks
Procedure: Four germinated rice seeds (variety: Koshihikari) were sowed in a pot (5×5 cm), which contains infected soil with Pythium glaminicola (mycelium 100 g/1 L soil). The pot was drenched with 10 ml of D-tagatose dilution and the seeds were covered with soil. After 2 weeks, the disease severity of the test plants per rice seedling in 25 cm^2 was observed and the effectiveness of test sample was judged. Tests were carried out in duplicate and the preventive value was calculated from percentage of onset area.

Pythium aphanidermatum = details: for Preventive value: 10 ml soil drench, from germination rate after 2 weeks
Procedure: Five seeds of test plants (cucumber, variety: Sagami hanpaku) were sowed in a pot (5×5 cm), which contains infested soil with Pythium aphanidermatum (mycelium 100 g/1 L soil) and the seeds were covered with the soil. […] After 2 weeks, the disease severity of the test plants was observed and the effectiveness of test sample was judged. Tests were carried out in triplicate using 5 plants for each test set and the preventive value was calculated from the germination rate.

Puccinia recondita [1] = details: Puccinia recondita, in Triticum aestivum, 168 h, read-out: Preventive value
Procedure: Test plants (variety: Nourin 61 gou) were sowed and grown until two leaves stage.
D-Tagatose and fungicide were diluted to 10000 ppm and the concentration listed in table 19, respectively, with distilled water, and 10 ml of the dilution was sprayed thoroughly on the plants. Three days after the spraying of the dilution, the plants were inoculated with Puccinia recondita containing 1×10^3/ml and then put for 16 hours in an inoculation chamber (20° C. to 23° C.) to promote disease. Seven days after inoculation the disease severity of the test plants was observed and the effectiveness of test sample was judged.

Plasmopara viticola [2] = details: Plasmopara viticola, 168 h, read-out: Preventive value
Procedure: Test plants (variety: Neo Muscat) were seeded and grown until three leaves. D-Tagatose was diluted to 5000 ppm and the fungicides were diluted to the concentrations listed in table 16, with distilled water, and 10 ml of the dilution was sprayed on the plants. Three days after the spraying of the dilution, the plants were infected by spraying a sporangium suspension of Plasmopara viticola containing 1×10^3/ml and then put for 16 hours in an inoculation chamber (20° C. to 23° C.) to promote disease. The disease severity of the test plants was observed 7 days after inoculation, and the effectiveness of test sample was judged.

[3] = system: Pseudoperonospora cubensis; details: for Preventive value: 5 ml soil drench, inoculated 5 days after drenching
Procedure: Test plants (cucumber, variety: Sagami hanpaku) were seeded and grown until the one true leaf stage. D-Tagatose was diluted to 5% and 1% with distilled water and then 5 ml of the dilution was drenched into the soil of the pot. Five days after drenching, a sporangium suspension of Pseudoperonospora cubensis containing 1×10^3/ml were noculated by spraying on the test plants and then put them for 16 hours in an inoculation chamber (20° C. to 23° C.) to promote disease. Seven days after inoculation the disease severity of the test plants was observed and the effectiveness of test sample was judged. Tests were carried out using two plants for each test set and the disease severity of the test plants was judged. The preventive value was calculated from the degree of disease severity as in Example 1.

[4] = system: Pseudoperonospora cubensis; details: Pseudoperonospora cubensis, in Cucumis sativus, 168 h, read-out: Preventive value
Procedure: Test plants (cucumber, variety: Sagami hanpaku) were seeded and grown until the one true leaf stage. D-Tagatose was diluted to 5000 ppm and the fungicides were diluted to the concentrations listed in table 14, with distilled water. And then 10 ml of the dilution was sprayed on the test plant. Three days after spraying of the solution, a sporangium suspension of Pseudoperonospora cubensis containing 1×10^3/ml were inoculated by spraying on test plants and then put for 16 hours in an inoculation chamber (20° C. to 23° C.) to promote disease. Seven days after inoculation the disease severity of the test plants was observed and the effectiveness of the test sample was judged. Tests were carried out using two plants for each test set and the disease severity of the test plants was judged in accordance with the following criteria. The preventive value was calculated from the degree of disease severity.
(§1) 0 (No lesion) 1 (Lesion area was not more than 40%) 2 ((Lesion area was 40%-80%) 3 (Lesion area was not less than 80%)
Preventive value=100{1−(n/N)} N=disease severity of untreated leaf, n=disease severity of the test leaf Synergistic effect was determined by Colby's equation.

Sphaerotheca fuligine = assay: cucumber powdery mildew, pot test: preventive effect; details: for Preventive value: inoculated 3 days after spraying
Procedure: Test plants (cucumber, variety: Sagami-hanpaku) were seeded and grown until the one true leaf stage. D-tagatose was diluted to 5% and 1% with distilled water and then 10 ml of the dilution was sprayed on the test plant. Three days after spraying, a condia suspension of Sphaerotheca fuligine was inoculated by spraying on test plants. Seven days after inoculation the disease severity of the test plants was observed and the effectiveness of test sample was judged. Tests were carried out using two plants for each test set and the disease severity of the test plants was judged in accordance with the following criteria.

[5] = system: Pseudoperonospora cubensis; assay: cucumber downy mildew, field trial; format: in vivo; details: for D.D.S (Degree of disease severity), Av / P.V. (Preventive value), Av / n/N × 100, Av: average of plots; for D.D.S (Degree of disease severity) / P.V. (Preventive value) / n/N × 100 / Disease severity 0: number of leaves / Disease severity 1: number of leaves / Disease severity 2: number of leaves / Disease severity 3: number of leaves / Disease severity 4: number of leaves: per plot (a, b); for Disease severity 0: number of leaves / Disease severity 1: number of leaves / Disease severity 2: number of leaves / Disease severity 3: number of leaves / Disease severity 4: number of leaves: 50 leaves
Pyricularia oryze = assay: whole plant or invertebrate; format: in vivo; details: Pyricularia, in Oryza sativa, 168 h, read-out: Preventive value
Phytophthora infestans [6] = format: in vivo; details: for Preventive value: inoculated 3 days after spraying
Sphaerotheca fuliginea [7] = assay: cucumber powdery mildew, field test; details: for D.D.S (Degree of disease severity), Av / P.V. (Preventive value), Av / n/N × 100, Av: average of plots
Procedure: Test plants (cucumber, variety: Ancor) were grown until approximately 10 leaves. […] After the first spraying of the dilution, the test plants were inoculated with condia of suspension of Sphaerotheca fuliginea. The disease severity of the test plants was observed 7 days after the last spraying, and the effectiveness of test sample was judged. Tests were carried out in triplicate using 8 plants per each test. The disease severity of the test plants was judged in accordance with the following criteria. The preventive value was calculated from the degree of disease severity.
(§2) 0 (No lesion) 1 (Lesion area was not more than 5% of the leaf area) 2 ((Lesion area was 5%-25% of the leaf area) 3 (Lesion area was 25%-50% of the leaf area) 4 (Lesion area was not less than 50% of the leaf area)

Plasmopara viticola [8] = assay: vine downy mildew, field test; details: for D.D.S (Degree of disease severity), Av / P.V. (Preventive value), Av / n/N × 100, Av: average of plots
Procedure: Test plants (variety: kyoho) were grown until approximately 10 leaves. […] After the first spraying of the dilution, grape leaves were infected by spraying a sporangium suspension of Plasmopara viticola containing 1×10^3/ml. The disease severity of the test plants was observed 7 days after last spraying, and the effectiveness of test sample was judged. Tests were carried out in triplicate using half of the test plant per each test. The disease severity of the test plants was judged in accordance with the following criteria. The preventive value was calculated from the degree of disease severity.
as §2

Puccinia recondita [9] = assay: wheat brown rust, field trial
Procedure: Test plants (variety: Nourin 61 gou) were sowed and grown until heading stage. D-Tagatose was diluted to 5% with distilled water and sprayed thoroughly on the plants two times every 8 days. Three days after the first spraying of the dilution, wheat leaves inoculated with wheat fusarium blight (Puccinia recondita) were kept in the test plants. The disease severity of the test plants was observed 21 days after last spraying and the effectiveness of test sample was judged. Tests were carried out in duplicate. One plot of each test was 5 m^2. The disease severity of the test plants was judged in accordance with the following criteria. The preventive value was calculated from the degree of disease severity.

[10] = system: Pseudoperonospora cubensis; assay: cucumber downy mildew, pot test: preventive effect; details: for Preventive value (3 DAS): inoculated 3 days after spraying; for Preventive value (5 DAS): inoculated 5 days after spraying
Procedure: Test plants (cucumber, variety: Sagami hanpaku) were seeded and grown until the one true leaf stage. D-Tagatose was diluted to 5%, 1% and 0.5% with distilled water and then 10 ml of the dilution was sprayed on the test plant. Three or five days after spraying, a sporangium suspension of Pseudoperonospora cubensis containing 1×10^3/ml were inoculated by spraying on test plants and then the plants were put for 16 hours in an incubation chamber (20° C. to 23° C.) to promote disease. Seven days after inoculation the disease severity of the test plants was observed and the effectiveness of test sample was judged. Tests were carried out using two plants for each test set and the disease severity of the test plants was judged in accordance with the following criteria. The preventive value was calculated from the degree of the disease severity.
as §1
Preventive value=100{1−(n/N)} N=disease severity of untreated leaf, n=disease severity of the tested leaf

Peronospora parasitica = assay: cabbage downy mildew, pot test: preventive effect; details: for Preventive value: inoculated 3 days after spraying
Procedure: Test plants (cabbage, variety: Shikidori) were seeded and grown until 4 leaves stage. […] Three days after spraying, a suspension containing condia of cucumber downy mildew (Peronospora parasitica) was inoculated by spraying on test plants. Seven days after inoculation the disease severity of the test plants was observed and the effectiveness of test sample was judged. Tests were carried out using two plants for each test set and the disease severity of test plants was judged in accordance with the following criteria. The preventive value was calculated from the degree of disease severity as in Example 1.

Phytophthora infestans [11] = assay: whole plant or invertebrate; format: in vivo; details: Phytophthora infestans, in Solanum lycopersicum, 168 h, read-out: Preventive value
Botrytis cinerea = details: Botrytis cinerea, in Solanum lycopersicum, 168 h, read-out: Preventive value
Procedure: Test plants (tomato, variety: Ogata-fukujyu) were seeded and grown until the three leaf stage. D-Tagatose and fungicide were diluted to 10000 ppm and the concentrations liste in table 23, respectively, with distilled water and 10 ml of the dilution was sprayed on the plants. Three days after spraying the solution, condia suspension of Botrytis cinerea were inoculated by spraying on test plants and then put for 16 hours in an inoculation chamber (20° C. to 23° C.) to promote disease. Seven days after inoculation, the disease severity of the test plants was observed and the effectiveness of test sample was judged.

Sphaerotheca fuliginea [12] = details: Podosphaera fuliginea, in Cucumis sativus, 168 h, read-out: Preventive value
Procedure: Test plants (cucumber, variety: Sagami hanpaku) were seeded and grown until the one true leaf stage. D-Tagatose and fungicide were diluted to 5000 ppm and the concentrations listed in table 20, respectively, with distilled water and 10 ml of the dilution was sprayed thoroughly on the plants. Three days after spraying, a condia suspension containing of Sphaerotheca fuliginea were inoculated by spraying on test plants.
Seven days after inoculation the disease severity of the test plants was observed and the effectiveness of test sample was judged.

[13] = 10000 ppm, per plot (1, 2), 50 leaves
[14] = 50000 ppm, per plot (1, 2), 50 leaves
[15] = 10000 ppm, per plot (1-3), 50 leaves
[16] = 50000 ppm, per plot (1-3), 50 leaves
[17] = 50000 ppm, per plot (1, 2), 100 leaves
[18] = 50000 ppm spray, listed as D-tagatose

## O=C(CO)[C@@H](O)[C@@H](O)[C@H](O)CO [D-Tagatose, D-tagatose]
Pythium glaminicola; 10000 ppm
  Preventive value: 77.3
Pythium glaminicola; 50000 ppm
  Preventive value: 96.2
Pythium glaminicola; soil drench
  effectiveness in words: effective enough
Pythium aphanidermatum; 10000 ppm
  Preventive value: 70.0
Pythium aphanidermatum; 50000 ppm
  Preventive value: 92.5
Pythium aphanidermatum; soil drench
  effectiveness in words: effective enough
Puccinia recondita [1]
  pest or weed control at 10000 ppm: 17%
  pest or weed control at 50000 ppm: 50%
Plasmopara viticola [2]
  pest or weed control at 5000 ppm: 17%
  pest or weed control at 10000 ppm: 67%
[3]; 10000 ppm
  Preventive value: 95.0
[3]; 10000 ppm, listed as D-tagatose
  Preventive value: 95
[3]; 50000 ppm
  Preventive value: 100.0
[3]; 50000 ppm, listed as D-tagatose
  Preventive value: 100
[3]; drench treatment
  effectiveness in words: effective enough
[4]
  pest or weed control at 5000 ppm: 40%
  pest or weed control at 10000 ppm: 83%
Sphaerotheca fuligine; 10000 ppm spray
  Preventive value: 20.0
Sphaerotheca fuligine; 50000 ppm spray
  Preventive value: 87.5
Sphaerotheca fuligine; foliar spray
  effectiveness in words: effective enough
[5]; 10000 ppm
  D.D.S (Degree of disease severity), Av: 2.25
  P.V. (Preventive value), Av: 96.5
  n/N × 100, Av: 9.0
  D.D.S (Degree of disease severity): 3.00 and 1.50
  P.V. (Preventive value): 95.4 and 97.7
  n/N × 100: 12.0 and 6.0
  Disease severity 0: number of leaves: 44 and 47
  Disease severity 1: number of leaves: 6 and 3
  Disease severity 2: number of leaves: 0
  Disease severity 3: number of leaves: 0
  Disease severity 4: number of leaves: 0
[5]; 50000 ppm
  D.D.S (Degree of disease severity), Av: 2.50
  P.V. (Preventive value), Av: 96.1
  n/N × 100, Av: 10.0
  D.D.S (Degree of disease severity): 3.00 and 2.00
  P.V. (Preventive value): 95.4 and 96.9
  n/N × 100: 12.0 and 8.0
  Disease severity 0: number of leaves: 44 and 46
  Disease severity 1: number of leaves: 6 and 4
  Disease severity 2: number of leaves: 0
  Disease severity 3: number of leaves: 0
  Disease severity 4: number of leaves: 0
[5]; field test
  effectiveness in words: effective enough
Pyricularia oryze
  pest or weed control at 10000 ppm: 0%
  pest or weed control at 50000 ppm: 50%
Phytophthora infestans [6]; 50000 ppm spray
  Preventive value: 28.3
Phytophthora infestans [6]; 100000 ppm spray
  Preventive value: 58.3
Phytophthora infestans [6]; foliar spray
  effectiveness in words: effective enough
Sphaerotheca fuliginea [7]; 10000 ppm
  D.D.S (Degree of disease severity), Av: 5.75
  P.V. (Preventive value), Av: 94.0
  n/N × 100, Av: 15.0
Sphaerotheca fuliginea [7]; 10000 ppm, per plot (1, 2)
  D.D.S (Degree of disease severity): 8.00
  P.V. (Preventive value): 96.4 and 91.7
Sphaerotheca fuliginea [7]; [13]
  Disease severity 0: number of leaves: 46 and 39
  Disease severity 3: number of leaves: 1
  Disease severity 4: number of leaves: 0
Sphaerotheca fuliginea [7]; 50000 ppm
  D.D.S (Degree of disease severity), Av: 1.25
  P.V. (Preventive value), Av: 98.7
  n/N × 100, Av: 5.0
Sphaerotheca fuliginea [7]; 50000 ppm, per plot (1, 2)
  D.D.S (Degree of disease severity): 1.00 and 1.50
  P.V. (Preventive value): 99.0 and 98.4
  n/N × 100: 4.0 and 6.0
Sphaerotheca fuliginea [7]; [14]
  Disease severity 0: number of leaves: 48 and 47
  Disease severity 1: number of leaves: 2 and 3
  Disease severity 2: number of leaves: 0
  Disease severity 3: number of leaves: 0
  Disease severity 4: number of leaves: 0
Sphaerotheca fuliginea [7]; field test
  effectiveness in words: effective enough
Plasmopara viticola [8]; 10000 ppm
  D.D.S (Degree of disease severity), Av: 12.75
  P.V. (Preventive value), Av: 71.7
  n/N × 100, Av: 31.0
Plasmopara viticola [8]; 10000 ppm, per plot (1-3)
  D.D.S (Degree of disease severity): 14.50 and 18.50 and 11.00
  P.V. (Preventive value): 72.0 and 64.3 and 78.7
  n/N × 100: 36.0 and 32.0 and 26.0
Plasmopara viticola [8]; [15]
  Disease severity 0: number of leaves: 32 and 34 and 37
  Disease severity 1: number of leaves: 8 and 4
Plasmopara viticola [8]; 50000 ppm
  D.D.S (Degree of disease severity), Av: 0.00
  P.V. (Preventive value), Av: 99.4
  n/N × 100, Av: 0.0
Plasmopara viticola [8]; 50000 ppm, per plot (1-3)
  P.V. (Preventive value): 100.0 and 93.1
Plasmopara viticola [8]; [16]
  Disease severity 0: number of leaves: 50 and 48
  Disease severity 2: number of leaves: 0
  Disease severity 3: number of leaves: 0
  Disease severity 4: number of leaves: 0
Plasmopara viticola [8]; field test
  effectiveness in words: effective enough
Puccinia recondita [9]; 50000 ppm, average of plots
  D.D.S (Degree of disease severity), Av: 6.1
Puccinia recondita [9]; 50000 ppm, per plot (1, 2)
  D.D.S (Degree of disease severity): 4.7 and 7.5
Puccinia recondita [9]; [17]
  Leaves number(n) of disease severity 0: 76 and 68
  Leaves number(n) of disease severity 1: 22 and 25
  Leaves number(n) of disease severity 4: 0
  Leaves number(n) of disease severity 5: 0
  Leaves number(n) of disease severity 6: 0
Puccinia recondita [9]; 50000 ppm, sprayed two times every 8 days, rated 21 days after last spraying
  P.V. (Preventive value), Av: 92.5
Puccinia recondita [9]; field trial
  effectiveness in words: effective enough
[10]; 5000 ppm spray
  Preventive value (3 DAS): 49.2
  Preventive value (5 DAS): 37.5
[10]; 10000 ppm spray
  Preventive value (3 DAS): 99.2
  Preventive value (5 DAS): 90.0
[10]; 10000 ppm spray, listed as D-tagatose
  Preventive value (5 DAS): 90
[10]; 50000 ppm spray
  Preventive value (3 DAS): 100.0
  Preventive value (5 DAS): 100.0
[10]; [18]
  Preventive value (3 DAS): 100
  Preventive value (5 DAS): 100
Peronospora parasitica; 10000 ppm spray
  Preventive value: 90.1
Peronospora parasitica; 50000 ppm spray
  Preventive value: 95.1
Peronospora parasitica; foliar spray
  effectiveness in words: effective enough
Phytophthora infestans [11]
  pest or weed control at 5000 ppm: 0%
  pest or weed control at 10000 ppm: 40%
Botrytis cinerea
  pest or weed control at 10000 ppm: 0%
  pest or weed control at 50000 ppm: 17%
Sphaerotheca fuliginea [12]
  pest or weed control at 5000 ppm: 40%
  pest or weed control at 10000 ppm: 93%

From patent publication US20110281807A1, “PLANT DISEASE CONTROL AGENT COMPRISING D-TAGATOSE AS ACTIVE INGREDIENT, AND PLANT DISEASE CONTROL METHOD” (NATIONAL UNIVERSITY CORPORATION KAGAWA UNIVERSITY, priority 2008, published 2011)
